Assays:
BNL CL.2 cells = test: Clonogenic assay after X-ray irradiation; format: cell-based, mouse; details: 30 μM, 2 h pretreatment, X-ray 2, 4, 6 Gy, colonies after two weeks
Description: (§1) Eight groups of BNL CL.2 cells (i.e., a normal control group referred to as Normal Control Group 1-A, an isorhamnetin-3-O-β-D-glucoside group referred to as Isorhamnetin-3-O-β-D-glucoside Group 1-A, three X-ray control groups referred to as X-Ray Control Groups 1-A to 3-A, and three experimental groups referred to as Experimental Groups 1-A to 3-A) and eight groups of NMuMG cells (i.e., a normal control group referred to as Normal Control Group 1-B, an isorhamnetin-3-O-β-D-glucoside group referred to as Isorhamnetin-3-O-β-D-glucoside Group 1-B, three X-ray control groups referred to as X-Ray Control Groups 1-B to 3-B, and three experimental groups referred to as Experimental Groups 1-B to 3-B) were prepared based on the procedure set forth in “Source and cultivation of cell lines” of “Experimental materials”. Specifically, BNL CL.2 cells in each group were cultivated using 5 mL of a corresponding medium shown in Table 1 and a 6-cm Petri dish in an amount of 2×10^5 cells per dish. Likewise, NMuMG cells in each group were cultivated using 5 mL of a corresponding medium shown in Table 1 and a 6-cm Petri dish in an amount of 2.5×10^5 cells per dish. The cultivation was conducted in an incubator (37° C., 5% CO2) for 24 hours. […]

NMuMG cells = test: Clonogenic assay after X-ray irradiation; format: cell-based, mouse; details: 30 μM, 2 h pretreatment, X-ray 2, 4, 6 Gy, colonies after two weeks
Description: as §1

## COc1cc(-c2oc3cc(O)cc(O)c3c(=O)c2O[C@@H]2O[C@H](CO)[C@@H](O)[C@H](O)[C@H]2O)ccc1O [isorhamnetin-3-O-β-D-glucoside]
BNL CL.2 cells
  survival fraction (clonogenic assay) versus X-ray control group: higher than that of the X-ray control group
NMuMG cells
  survival fraction (clonogenic assay) versus X-ray control group: higher than that of the X-ray control group

Source: patent US9821002B2, “Method for alleviating radiation injury with isorhamnetin-3-O-β-D-glucoside” (Sinotai Oncology Associate., Ltd., priority 2015, dated 2017)
